Activity calls are given as the source filed them. No cut-off for these calls is given here.
Tests used:
4T1 [1] = assay: Antitumor activity against mouse 4T1 cells implanted in BALB/C mouse assessed as downregulation of N-Myc gene expression at 25 mg/kg,ip administrated daily for 14 days by RT-qPCR analysis; format: functional, organism-based; details: time 14.0 day
4T1 [2] = assay: Potentiation of etoposide induced antitumor activity against mouse 4T1 cells implanted in BALB/C mouse assessed as upregulation of IFNalpha gene expression at 25 mg/kg,ip administrated daily for 12 days in presence of 8 mg/kg etoposide administration by RT-qPCR analysis; format: functional, organism-based; details: time 12.0 day
MCF7 [3] = assay: Antitumor activity against human MCF7 cells xenografted in BALB/C mouse assessed as downregulation of GREB1 gene expression at 25 mg/kg,ip administrated every other day for 29 days by RT-qPCR analysis; format: functional, organism-based; details: time 29.0 day
4T1 [4] = assay: Antitumor activity against mouse 4T1 cells implanted in BALB/C mouse assessed as upregulation of IFIT1 gene expression at 25 mg/kg,ip administrated daily for 14 days by RT-qPCR analysis; format: functional, organism-based; details: time 14.0 day
[5] = Toxicity in BALB/C mouse implanted with mouse 4T1 cells assessed as change in body weight at 25 mg/kg,ip administrated daily for 12 days in presence of 8 mg/kg etoposide administration; format: organism-based; details: in vivo, 288 h, time 12 day
[6] = Toxicity in BALB/C mouse xenografted with human MCF7 cells assessed as change in body weight at 25 mg/kg,ip administrated every other day for 29 days; format: organism-based; details: in vivo, 696 h, time 29 day
4T1 [7] = assay: Antitumor activity against mouse 4T1 cells implanted in BALB/C mouse assessed as downregulation of GREB1 gene expression at 50 mg/kg,ip administrated daily for 14 days by RT-qPCR analysis; format: functional, organism-based; details: time 14.0 day
MCF7 [8] = assay: Synergistic antiproliferative activity against human MCF7 cells assessed as inhibition of cell growth at 2.5 uM incubated for 7 days in presence of fulvestrant by celltiter 96 aqueous one solution cell proliferation assay; format: functional, cell-based; details: time 7.0 day
MCF7 [9] = assay: Synergistic antiproliferative activity against human MCF7 cells assessed as downregulation of GREB1 gene expression at 2.5 uM incubated for 6 hrs in presence of tamoxifen by RT-qPCR analysis; format: functional, cell-based
MCF7 [10] = assay: Antitumor activity against human MCF7 cells xenografted in BALB/C mouse assessed as downregulation of CCND1 gene expression at 25 mg/kg,ip administrated every other day for 29 days by RT-qPCR analysis; format: functional, organism-based; details: time 29.0 day
MCF7 [11] = assay: Antiproliferative activity against human MCF7 cells assessed as reduction in cell growth incubated for 7 days by celltiter 96 aqueous one solution cell proliferation assay; details: MCF7, 168 h
MCF7 [12] = assay: Antitumor activity against human MCF7 cells xenografted in BALB/C mouse assessed as reduction of tumor size at 50 mg/kg,ip administrated every other day for 29 days; format: functional, organism-based; details: time 29.0 day
4T1 [13] = assay: Antitumor activity against mouse 4T1 cells implanted in BALB/C mouse assessed as upregulation of DDX58 gene expression at 50 mg/kg,ip administrated daily for 14 days by RT-qPCR analysis; format: functional, organism-based; details: time 14.0 day
BT-474 = assay: Antiproliferative activity against human BT-474 cells assessed as reduction in cell growth incubated for 7 days by celltiter 96 aqueous one solution cell proliferation assay; details: BT-474, 168 h
4T1 [14] = assay: Antitumor activity against mouse 4T1 cells implanted in BALB/C mouse assessed as downregulation of CCND1 gene expression at 25 mg/kg,ip administrated daily for 14 days by RT-qPCR analysis; format: functional, organism-based; details: time 14.0 day
MCF7 [15] = assay: Antitumor activity against human MCF7 cells xenografted in BALB/C mouse assessed as reduction of tumor weight at 50 mg/kg,ip administrated every other day for 29 days; format: functional, organism-based; details: time 29.0 day
[16] = Toxicity in BALB/C mouse xenografted with human MDA-MB-231 cells assessed as change in body weight at 50 mg/kg,ip administrated daily for 11 days; format: organism-based; details: in vivo, 264 h, time 11 day
MCF7 [17] = assay: Synergistic antiproliferative activity against human MCF7 cells assessed as downregulation of N-Myc gene expression at 2.5 uM incubated for 6 hrs in presence of tamoxifen by RT-qPCR analysis; format: functional, cell-based
[18] = Toxicity in BALB/C mouse xenografted with human MCF7 cells assessed as change in kidney morphology at 25 mg/kg,ip administrated every other day for 29 days; format: organism-based; details: in vivo, 696 h, time 29 day
MCF7 [19] = assay: Synergistic antitumor activity against human MCF7 cells xenografted in BALB/C mouse assessed as downregulation of CCND1 gene expression at 25 mg/kg,ip administrated every other day for 15 days in presence of 5 mg/kg tamoxifen oral administration by RT-qPCR analysis; format: functional, organism-based; details: time 15.0 day
MCF7 [20] = assay: Synergistic antitumor activity against human MCF7 cells xenografted in BALB/C mouse assessed as downregulation of GREB1 gene expression at 25 mg/kg,ip administrated every other day for 15 days in presence of 5 mg/kg tamoxifen oral administration by RT-qPCR analysis; format: functional, organism-based; details: time 15.0 day
[21] = Toxicity in BALB/C mouse implanted with mouse 4T1 cells assessed as change in heart morphology at 50 mg/kg,ip administrated daily for 14 days; format: organism-based; details: in vivo, 336 h, time 14 day
MCF7 [22] = assay: Antitumor activity against human MCF7 cells xenografted in BALB/C mouse assessed as reduction of tumor size at 25 mg/kg,ip administrated every other day for 29 days; format: functional, organism-based; details: time 29.0 day
[23] = Toxicity in BALB/C mouse xenografted with human MCF7 cells assessed as change in heart morphology at 25 mg/kg,ip administrated every other day for 29 days; format: organism-based; details: in vivo, 696 h, time 29 day
MCF7 [24] = assay: Antitumor activity against human MCF7 cells xenografted in BALB/C mouse assessed as upregulation of IFNalpha gene expression at 50 mg/kg,ip administrated every other day for 29 days by RT-qPCR analysis; format: functional, organism-based; details: time 29.0 day
HCC1806 = assay: Antiproliferative activity against human HCC1806 cells assessed as reduction in cell growth incubated for 7 days by celltiter 96 aqueous one solution cell proliferation assay; details: HCC1806, 168 h
T47D = assay: Induction of cell cycle arrest in human T47D cells at 2.5 to 10 uM incubated overnight by propidium iodide staining based flow cytometry; format: functional; details: dose 2.5-10 µM
MCF7 [25] = assay: Potentiation of etoposide induced antiproliferative activity against human MCF7 cells assessed as upregulation of IFNalpha gene expression at 2.5 uM in presence of etoposide by RT-qPCR analysis; format: functional, cell-based
MDA-MB-231 = assay: Antiproliferative activity against human MDA-MB-231 cells assessed as reduction in cell growth incubated for 7 days by celltiter 96 aqueous one solution cell proliferation assay; details: MDA-MB-231, 168 h
MCF7 [26] = assay: Potentiation of etoposide induced antiproliferative activity against human MCF7 cells assessed as upregulation of CCL5 gene expression at 2.5 uM in presence of etoposide by RT-qPCR analysis; format: functional, cell-based
4T1 [27] = assay: Antitumor activity against mouse 4T1 cells implanted in BALB/C mouse assessed as downregulation of C-Myc gene expression at 25 mg/kg,ip administrated daily for 14 days by RT-qPCR analysis; format: functional, organism-based; details: time 14.0 day
MDA-MB-468 = assay: Antiproliferative activity against human MDA-MB-468 cells assessed as reduction in cell growth incubated for 7 days by celltiter 96 aqueous one solution cell proliferation assay; details: MDA-MB-468, 168 h

Question: Which Activity (4T1 [1]) does the source give for `Cc1ccc(-c2nc(N3CCN(CCN(C)C)CC3)ncc2-c2ccoc2)cc1.Cl.Cl` here?
Answer: Active

Question: What about the Activity (4T1 [2]) of the same compound?
Answer: Active

Question: And the Activity (MCF7 [3])?
Answer: Active

Question: What about the Activity (4T1 [4]) of the same compound?
Answer: Active

Question: And the Activity [5]?
Answer: Non-Toxic

Question: And the Activity [6]?
Answer: Non-Toxic

Question: What about the Activity (4T1 [7]) of the same compound?
Answer: Active

Question: What about the Activity (MCF7 [8]) of the same compound?
Answer: Active

Question: And the Activity (MCF7 [9])?
Answer: Active

Question: And the Activity (MCF7 [10])?
Answer: Active

Question: What about the EC50 (MCF7 [11]) of the same compound?
Answer: 1800 nM

Question: What about the Activity (MCF7 [12]) of the same compound?
Answer: Active

Question: What about the Activity (4T1 [13]) of the same compound?
Answer: Active

Question: And the EC50 (BT-474)?
Answer: 2130 nM

Question: And the Activity (4T1 [14])?
Answer: Active

Question: And the Activity (MCF7 [15])?
Answer: Active

Question: And the Activity [16]?
Answer: Non-Toxic

Question: What about the Activity (MCF7 [17]) of the same compound?
Answer: Active

Question: And the Activity [18]?
Answer: Non-Toxic

Question: And the Activity (MCF7 [19])?
Answer: Active

Question: And the Activity (MCF7 [20])?
Answer: Active

Question: And the Activity [21]?
Answer: Non-Toxic

Question: And the Activity (MCF7 [22])?
Answer: Active

Question: And the Activity [23]?
Answer: Non-Toxic

Question: What about the Activity (MCF7 [24]) of the same compound?
Answer: Active

Question: And the EC50 (HCC1806)?
Answer: 2830 nM

Question: What about the Activity (T47D) of the same compound?
Answer: Active

Question: And the Activity (MCF7 [25])?
Answer: Active

Question: What about the EC50 (MDA-MB-231) of the same compound?
Answer: 3750 nM

Question: What about the Activity (MCF7 [26]) of the same compound?
Answer: Active

Question: What about the Activity (4T1 [27]) of the same compound?
Answer: Active

Question: And the EC50 (MDA-MB-468)?
Answer: 2020 nM

Reference: ChEMBL document CHEMBL5512665, “A CARM1 Inhibitor Potently Suppresses Breast Cancer Both In Vitro and In Vivo” (J Med Chem, 2024)
